Results reported in US20040014143A1, “Method and apparatus for detecting and monitoring peptides, and peptides identified therewith” (priority 2002, published 2004).
Like-named read-outs stand apart in the source and are kept apart here.

What was measured:
[1] = tested on: GABA production; settings: previous microdialysis studies; cited from earlier work
[2] = tested on: neurotransmitter levels (aspartate, GABA, glutamate); settings: infusion of 10 μM peptide into the dialysis probe, n=2
[3] = tested on: opioid receptors; experiment: Receptor assays probing binding to opioid receptors; settings: data not shown

Compound | effect on GABA production [1] | glutamate levels [1] | GABA level (change in words) [2] | aspartate level (change in words) [2] | glutamate levels (change in words) [2] | GABA level (change in words) ([2]; listed as I11lo peptide) | aspartate level (change in words) ([2]; listed as I11lo peptide) | binding to opioid receptors [3]
CN1CCc2cccc3c2[C@H]1Cc1ccc(O)c(O)c1-3 [apomorphine] | stimulates GABA production | remain the same | – | – | – | – | – | –
SPQLEDEAKE (listed as Rattus norvegicus) [peptide I1-10, novel product of preproenkephalin A processing] | – | – | increase | increase | remained the same | increases | increases | negative
YGGFL [Leu-enkephalin] | inhibits nicotine-stimulated GABA production | – | – | – | – | – | – | –
